Entries after “also recorded” stand apart in the source; their conditions may differ.
Test system: E. coli JW3193 ΔNanT expressing PmSiaT
Test: Growth of E. coli JW3193 ΔNanT expressing PmSiaT
Type: cell-based, Escherichia coli
Conditions: for effect on growth on sialic acid: 0.5 mM sialic acid + 1 mM inhibitor; for growth with inhibitor as only carbon source: 1 mM inhibitor
From the text: To further investigate bacterial growth inhibition, we employed a model system of E. coli JW3193 ΔNanT expressing the SaSiaT and PmSiaT transporters. We designed these experiments to test if compounds 3e and 3f could inhibit the Neu5Ac transport in vivo because, without an active sialic acid transporter, E. coli JW3193 ΔNanT cannot grow on Neu5Ac.[16],[21]
For the bacterial growth experiments, the pJ422-01 plasmid containing the relevant SiaT or NanT gene was transformed into the E. coli JW3193 ΔnanT strain.[21] Throughout the experiments, strains containing the pJ422-01 plasmid were grown in media supplemented with 25 μg/mL Zeocin. E. coli BW25113, empty E. coli JW3193, and E. coli JW3193 with pJ422-01 containing the NanT gene were also used as controls. Strains were initially plated out from glycerol stocks before a single colony was picked and grown overnight in low salt LB media at 37 °C, with shaking at 180 rpm. Overnight cultures were diluted to an OD600 of 0.05 using low salt LB [supplemented with 1 mM isopropyl β-D-1-thiogalactopyranoside (IPTG)], before they were incubated at 37 °C, with shaking at 250 rpm, until they reached an OD600 of 0.3. At this point, 5 mL of each culture was centrifuged at 6000g for 5 min at 25 °C. The supernatants were removed and the cell pellets were resuspended in 5 mL of M9 MM without glucose prior to being centrifuged again at 6000g for 5 min at 25 °C. This wash step was repeated twice more before cells were resuspended to an OD600 of 0.5 in M9 MM without glucose. A Corning Costar Flat Bottom 96 Well TC-treated microplate was set up with 180 μL of M9 MM containing 1 mM IPTG (for the pJ422-01 strains) and either 5 mM glucose, 0.5 mM sialic acid, and 0.5 mM sialic acid with 1 mM of either inhibitor, or 1 mM of either inhibitor as a carbon source. To the 180 μL of media, 20 μL of each culture were added to the plate (OD600 of 0.05), before it was loaded into a FLUOstar Omega microplate reader (BMG Labtech). Growth was recorded at 600 nm every 10 min at 37 °C, with shaking at 300 rpm. Growth curves represent the mean and standard deviation of measurement from triplicate measurements (glucose/no carbon source in duplicate).
Fig. S5. Growth of E. coli JW3193 ΔNanT expressing the SaSiaT and PmSiaT transporters from a plasmid and using various carbon sources and in the presence or absence of inhibitors, 3e and 3f. […]
(B) PmSiaT is again expressed from a plasmid in the E. coli strain JW3193 ΔNanT, where the native sialic acid transporter (NanT) is deleted. The strain grows normally when in media with glucose (black line). There is no growth in the absence of any carbon source (grey line). In the presence of sialic acid at 0.5 mM the strain grows to an OD of ~0.5 (red line), showing that the transporter is functional. […]
substrates. […]

| SMILES | effect on growth on sialic acid | growth with inhibitor as only carbon source |
| --- | --- | --- |
| CC(=O)NC1C(OCc2cc(F)cc(F)c2)CC(O)(C(=O)O)OC1C(O)C(O)CO (stereo not shown) [Compound 3e] | no effect on growth; also recorded: neither inhibitor seemed to alter bacterial growth | no growth |
| CC(=O)NC1C(OCc2cc(Br)cc(Br)c2)CC(O)(C(=O)O)OC1C(O)C(O)CO (stereo not shown) [Compound 3f] | no effect on growth; also recorded: neither inhibitor seemed to alter bacterial growth | no growth |
